Values joined by “and” are separate entries in the source; they are usually repeats but may differ in a detail not shown here. Identical values can stand only once.
Key:
caspase 7 = target: T1, caspase 7 (Homo sapiens, UniProt P55210); conditions: cited from earlier work
T1 sequence (P55210 24-198 limits assumed): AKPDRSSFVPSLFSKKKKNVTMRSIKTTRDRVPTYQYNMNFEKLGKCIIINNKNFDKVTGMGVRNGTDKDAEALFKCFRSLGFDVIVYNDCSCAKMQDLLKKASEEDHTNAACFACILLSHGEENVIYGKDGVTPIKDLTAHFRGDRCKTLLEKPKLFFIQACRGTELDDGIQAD
T1 sequence (P55210 207-303 limits assumed): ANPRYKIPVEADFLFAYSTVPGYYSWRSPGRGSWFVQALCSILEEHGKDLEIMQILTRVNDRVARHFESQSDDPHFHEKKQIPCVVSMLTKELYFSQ

caspase 4 = target: T2, caspase 4 (Homo sapiens, UniProt P49662); conditions: cited from earlier work
T2 sequence (P49662 81-270 limits assumed): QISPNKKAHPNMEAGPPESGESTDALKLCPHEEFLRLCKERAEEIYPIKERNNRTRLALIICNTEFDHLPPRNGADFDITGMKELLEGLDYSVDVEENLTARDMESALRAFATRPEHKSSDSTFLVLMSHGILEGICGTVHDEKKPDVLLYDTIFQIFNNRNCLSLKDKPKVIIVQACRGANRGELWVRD
T2 sequence (P49662 290-377 limits assumed): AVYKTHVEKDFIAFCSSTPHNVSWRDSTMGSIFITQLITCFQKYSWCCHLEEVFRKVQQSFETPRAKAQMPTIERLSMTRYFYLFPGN

caspase 3 = target: T3, caspase 3 (Homo sapiens, UniProt P42574); conditions: cited from earlier work
T3 sequence (P42574 29-175 limits assumed): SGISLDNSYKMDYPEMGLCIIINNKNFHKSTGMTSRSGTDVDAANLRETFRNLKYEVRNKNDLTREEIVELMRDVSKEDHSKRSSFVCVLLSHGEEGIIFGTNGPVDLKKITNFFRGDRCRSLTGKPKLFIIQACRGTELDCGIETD
T3 sequence (P42574 176-277 limits assumed): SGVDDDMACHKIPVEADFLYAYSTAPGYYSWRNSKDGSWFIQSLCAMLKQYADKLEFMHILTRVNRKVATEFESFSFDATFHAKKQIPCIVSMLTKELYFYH

caspase 1 = target: T4, caspase 1 (Homo sapiens, UniProt P29466); conditions: cited from earlier work
T4 sequence (P29466 120-297 limits assumed): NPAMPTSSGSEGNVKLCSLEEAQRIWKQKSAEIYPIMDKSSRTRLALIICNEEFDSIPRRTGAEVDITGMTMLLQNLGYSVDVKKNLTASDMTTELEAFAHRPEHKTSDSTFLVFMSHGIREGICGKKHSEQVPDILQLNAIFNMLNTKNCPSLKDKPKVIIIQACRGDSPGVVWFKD
T4 sequence (P29466 317-404 limits assumed): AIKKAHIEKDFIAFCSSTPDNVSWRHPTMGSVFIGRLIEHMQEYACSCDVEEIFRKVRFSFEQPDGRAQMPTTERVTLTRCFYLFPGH

[1] = test system: photoreceptor cell death (TUNEL-positive cells in the ONL); experiment: TUNEL staining 24 hours after retinal detachment with subretinal administration of cytokines; format: in vivo, rat; conditions: subretinal 5 μl of 0.1 μg/μl, PBS control 15.3±5.4, n=7
Procedure: Retinal detachment was induced by subretinal injection of sodium hyaluronate. Retinal tissues were collected at various time points (1, 3, 6, 24, 72 hours) after inducing retinal detachment. Neural retina was homogenized, and mRNA expression was quantified by QPCR. To identify the cellular sources of expressed genes, samples from various retinal layers were obtained using LCM. Immunohistochemistry and Enzyme Linked-Immuno-Sorbent Assay (ELISA) were performed to show expressional changes of proteins. TUNEL staining was used in order to assess photoreceptor death induced by retinal detachment with or without subretinal administration of cytokines.
Fifty-five adult male Brown Norway rats (200-300 g, Charles River, Boston, Mass.) were used in this study. Rats were anesthetized with a 1:1 mixture of ketamine (100 mg/mL) and xylazine (20 mg/mL; both from Phoenix Pharmaceutical, St. Joseph, Mo.). Pupils were dilated with a topically applied mixture of phenylephrine (5.0%) and tropicamide (0.8%; Massachusetts Eye and Ear Infirmary internal formulary preparation). A sclerotomy was created approximately 2 mm posterior to the limbus with a 22-gauge needle. Care was taken not to damage the lens during creation of the sclerotomy. A Glaser subretinal injector (20-gauge shaft with a 32-gauge tip, BD Biosciences, San Jose, Calif.) connected to a syringe filled with 10 mg/mL Healon® sodium hyaluronate (Pharmacia and Upjohn Co., Kalamazoo, Mich.) was then introduced into the vitreous cavity. […]
Subretinal administration of select cytokines was performed following the creation of retinal detachment. […] TUNEL-positive cells were counted in a masked fashion, and standard error was determined.
To investigate effects of cytokines on photoreceptor cell death induced by retinal detachment, TUNEL staining was performed 24 hours after retinal detachment with subretinal administration of PBS, TNF-alpha (0.1 μg/μl), IL-1 beta (0.1 μg/μl), or MCP-1 (0.1 μg/μl). […] In the control condition with PBS, TUNEL-positive cells were detected in the ONL 24 hours after retinal detachment (15.3±5.4 cells/field, n=7). […]

[2] = test system: photoreceptor cell death (TUNEL-positive response in the ONL); experiment: TUNEL analysis 72 hours after retinal detachment with subretinal TNF-alpha suppressing agents; format: in vivo, rat; conditions: subretinal 5 μl, 2 mg/mL, FIG. 12
Procedure: Retinal detachments were created only in the right eye of each animal, and the left eye served as a control. Following retinal detachment, various treatments were administered subretinally using a Hamilton syringe equipped with a 32-gauge needle. The tip of needle was introduced through a sclerotomy and retinal hole into the subretinal space, and 5 μl of solution, either normal goat serum (0.1 mg/mL), goat anti-TNF-alpha antibody (0.1 mg/mL), or etanercept (2 mg/mL), was injected over 3 minutes. Seventy-two hours after retinal detachment, the eyes were subjected to TUNEL analysis.

[3] = test system: mRNA levels of bFGF, TNF-alpha, IL-1 beta; experiment: Realtime PCR of cytokine mRNA in detached retina after intravitreal PEDF; format: in vivo, rat; conditions: 5.0 μg intravitreal injection just after detachment versus PBS control; FIG. 16
Procedure: (§1) For both sets of experiments, all eyes were enucleated 72 hours after retinal detachment and embedded in paraffin. Four micron sections through the area of detachment, including the optic nerve, were obtained. Light microscopy was performed at 3× and at 32× magnification using hematoxylin-eosin staining. TUNEL staining was performed using a commercial kit (Oncogene, San Diego, Calif.) and viewed at 20× magnification using green fluorescein staining for TUNEL and blue DAPI nuclear staining. TUNEL-positive cells were counted per millimeter of tissue by a masked observer. The mean number of TUNEL-positive cells per millimeter of tissue was determined by averaging the number of TUNEL-positive cells per mm of tissue in three sections of each eye. Additionally, a realtime polymerase chain reaction (PCR) was performed for a variety of cytokines, including bFGF, TNF-alpha, and IL-1 beta, on extracted retina from normal eyes (n=6), untreated eyes with retinal detachment (n=6), PEDF-treated eyes with retinal detachment (n=6) and PBS-treated eyes with retinal detachment (n=6).
A realtime PCR was performed for a variety of cytokines, including bFGF, PEDF, TNF-alpha, IL-1 beta, HGF, CNTF, TGF beta, and IGF 1. The amount of each mRNA from each of six eyes treated with a 5.0 μg intravitreal injection of PEDF just after detachment was averaged. […]

[4] = test system: photoreceptor cell death (TUNEL-positive cells); experiment: TUNEL staining 72 hours after retinal detachment with intravitreal or subretinal PEDF; format: in vivo, rat; conditions: for difference in number of TUNEL-positive cells, intravitreally-injected control eyes versus intravitreally-injected PEDF eyes: intravitreal; for Number of TUNEL-Positive Cells, Mean: 72 hours
Procedure: In these experiments, retinal detachments were created in Brown Norway rats by injecting […] into the subretinal space using a transvitreous approach. Treatment with PEDF (BioProducts MD, Middletown, Md.) or control vehicle was administered immediately after detachment. In an initial set of experiments, the treatment groups included: intravitreal administration of 2.5 μg PEDF (n=6); intravitreal administration of 5.0 μg PEDF (n=9); subretinal administration of 2.5 μg PEDF (n=6); subretinal administration of 5.0 μg PEDF (n=9); intravitreal administration of control vehicle (n=3); and subretinal administration of control vehicle (n=3). In a second set of experiments, the treatment groups included: intravitreal administration of 5.0 μg PEDF (n=15); subretinal administration of 5.0 μg PEDF (n=15); intravitreal administration of control vehicle (n=9); and subretinal administration of control vehicle (n=9).
as §1

2-Val-Ala-Asp-fluoromethylketone
caspase inhibition (caspase 7): inhibits
caspase inhibition (caspase 4): inhibits
caspase inhibition (caspase 3): inhibits
caspase inhibition (caspase 1): inhibits

TNF-alpha
number of TUNEL-positive cells in the ONL [1]: did not change significantly

MCP-1: rat recombinant MCP-1 administered subretinally
number of TUNEL-positive cells in the ONL [1]: 67.7±46.5 cells/field

Ac-Tyr-Val-Ala-Asp-aldehyde
Ki (caspase 7): ≥ 50000 nM
Ki (caspase 4): 10 nM
Ki (caspase 3): ≥ 50000 nM
Ki (caspase 1): 10 nM

etanercept
TUNEL-positive response in the ONL as compared to controls [2]: significantly decreased

B1: PEDF: pigment epithelium-derived factor (BioProducts MD), neurotrophic factor (protein, UniProt P36955 20-418, looked up)
Pigment epithelium-derived …: QNPASPPEEGSPDPDSTGALVEEEDPFFKVPVNKLAAAVSNFGYDLYRVRSSTSPTTNVLLSPLSVATALSALSLGAEQRTESIIHRALYYDLISSPDIHGTYKELLDTVTAPQKNLKSASRIVFEKKLRIKSSFVAPLEKSYGTRPRVLTGNPRLDLQEINNWVQAQMKGKLARSTKEIPDEISILLLGVAHFKGQWVTKFDSRKTSLEDFYLDEERTVRVPMMSDPKAVLRYGLDSDLSCKIAQLPLTGSMSIIFFLPLKVTQNLTLIEESLTSEFIHDIDRELKTVQAVLTVPKLKLSYEGEVTKSLQEMKLQSLFDSPDFSKITGKPIKLTQVEHRAGFEWNEDGAGTTPSPGLQPAHLTFPLDYHLNQPFIFVLRDTDTGALLFIGKILDPRGP
effect on mRNA levels of bFGF, TNF-alpha, IL-1 beta, or any of the cytokines measured [3]: does not significantly alter
difference in number of TUNEL-positive cells, intravitreally-injected control eyes versus intravitreally-injected PEDF eyes ([4]; initial set of experiments): no statistically significant difference
Number of TUNEL-Positive Cells, Mean ([4]; initial set of experiments, intravitreal 2.5 μg, control 23.3): 16.9 TUNEL-positive cells per millimeter of tissue
Number of TUNEL-Positive Cells, Mean ([4]; initial set of experiments, intravitreal 5.0 μg, control 23.3): 28.4 TUNEL-positive cells per millimeter of tissue
Number of TUNEL-Positive Cells, Mean ([4]; initial set of experiments, subretinal 2.5 μg, control 63.8): 17.6±15.5 TUNEL-positive cells per millimeter of tissue and 17.7 TUNEL-positive cells per millimeter of tissue
Number of TUNEL-Positive Cells, Mean ([4]; initial set of experiments, subretinal 5.0 μg, control 63.8): 30.4±18.1 TUNEL-positive cells per millimeter of tissue and 30.4 TUNEL-positive cells per millimeter of tissue
effect on photoreceptor cell death following retinal detachment as measured using TUNEL ([4]; larger sample set, either subretinally or intravitreally): no significant effect
difference in number of TUNEL-positive cells, intravitreally-injected control eyes versus intravitreally-injected PEDF eyes ([4]; second set of experiments): no statistically significant difference
Number of TUNEL-Positive Cells, Mean ([4]; second set of experiments, intravitreal 5.0 μg, control 30.2): 30.3 TUNEL-positive cells per millimeter of tissue

B2: IL-1 beta: rat recombinant IL-1 beta administered subretinally (protein, UniProt Q63264 117-268, looked up)
Interleukin-1 beta: VPIRQLHCRLRDEQQKCLVLSDPCELKALHLNGQNISQQVVFSMSFVQGETSNDKIPVALGLKGLNLYLSCVMKDGTPTLQLESVDPKQYPKKKMEKRFVFNKIEVKTKVEFESAQFPNWYISTSQAEHRPVFLGNSNGRDIVDFTMEPVSS
number of TUNEL-positive cells in the ONL [1]: did not change significantly

Reference: patent US9549895B2, “Methods and compositions for preserving the viability of photoreceptor cells” (Massachusetts Eye and Ear Infirmary, priority 2004, dated 2017)
